Measured values published in paper PMC9267128, “New 2-[(4-Amino-6-N-substituted-1,3,5-triazin-2-yl)methylthio]-N-(imidazolidin-2-ylidene)-4-chloro-5-methylbenzenesulfonamide Derivatives, Design, Synthesis and Anticancer Evaluation” (International Journal of Molecular Sciences, 2022).

Tests used:
HeLa (cervical cancer) = test: MTT cell viability assay, HeLa; format: cell-based, human; settings: for IC50: Homo sapiens, HeLa, MTT assay, 72 h of incubation
Experimental: (§1) Analysis was performed using an MTT assay after 72 h of incubation.
(§2) All chemicals, if not stated otherwise, were obtained from Sigma–Aldrich (St. Louis, MO, USA). The HCT-116 cell line was purchased from ATCC (ATCC-No: CCL-247), while the MCF-7, HeLa and HaCaT cell lines were purchased from Cell Lines Services (Eppelheim, Germany). Cells were cultured in Dulbecco’s modified Eagle’s medium (DMEM) supplemented with 10% fetal bovine serum, 2 mM glutamine, 100 units/mL penicillin and 100 µg/mL streptomycin. Cultures were maintained in a humidified atmosphere with 5% carbon dioxide at 37 °C in an incubator (Heraceus, HeraCell).
(§3) Cell viability was examined using the MTT [3-(4,5-dimethylthiazol-2-yl)-2,5-diphenyltetrazolium bromide] assay. Cells were seeded in 96-well plates at a density of 3 × 10^3 cells/well and treated for 72 h with the tested compounds in the concentration range of 1–100 µM. Then, MTT (0.5 mg/mL) was added to the medium and cells were further incubated for 2 h at 37 °C. In the next stage, cells were lysed with DMSO and the absorbance of the formazan solution was measured at 550 nm with a plate reader (1420 multilabel counter, Victor, Jügesheim, Germany). The experiment was performed in triplicate. Values are expressed as the mean ± SD of at least three independent experiments.

HCT-116 (colon cancer) = test: MTT cell viability assay, HCT-116; format: cell-based, human; settings: for IC50: Homo sapiens, HCT-116, 72 h, MTT assay, 72 h of incubation
Experimental: as §1, §2, §3

MCF-7 (breast cancer) = test: MTT cell viability assay, MCF-7; format: cell-based, human; settings: for IC50: Homo sapiens, MCF7, 72 h, MTT assay, 72 h of incubation
Experimental: (§4) Compounds 20–162 were evaluated in vitro for their effects on the viability of three cancer cell lines: HCT-116 (colon cancer), MCF-7 (breast cancer) and HeLa (cervical cancer), as well as the non-cancerous keratinocyte cell line (HaCaT). […] Analysis was performed using an MTT assay after 72 h of incubation.
as §2
as §3, with “experiments. Cisplatin was used as a positive control.” for “experiments.”

[1] = system: HaCaT (human keratinocyte cell line); test: MTT cell viability assay, non-cancerous HaCaT; format: cell-based; settings: Homo sapiens, HaCaT, 72 h, 72 h of incubation, non-cancerous keratinocytes
Experimental: as §4, §2
as §3, with “experiments. Cisplatin was used as a positive control.” for “experiments.”

Structure (SMILES) | IC50 (HeLa (cervical cancer)) [µM] | IC50 (HCT-116 (colon cancer)) [µM] | IC50 (MCF-7 (breast cancer)) [µM] | IC50 [1] [µM] | Selectivity Index (SI) HeLa (HeLa (cervical cancer); IC50 value toward HaCaT cells/IC50 value toward HeLa) | Selectivity Index (SI) HCT-116 (HCT-116 (colon cancer); IC50 value toward HaCaT cells/IC50 value toward HCT-116) | Selectivity Index (SI) MCF-7 (MCF-7 (breast cancer); IC50 value toward HaCaT cells/IC50 value toward MCF-7)
Cc1cc(S(=O)(=O)N=C2NCCN2Cc2ccc(F)cc2)c(SCc2nc(N)nc(N3CCN(c4cccc(Cl)c4)CC3)n2)cc1Cl [Compound 97] | 9 ± 0.3 | 6 ± 0.2 | 7 ± 0.4 | 24 ± 1 |  |  | 
Cc1cc(S(=O)(=O)N=C2NCCN2Cc2ccc(F)cc2)c(SCc2nc(N)nc(N3CCN(c4ccc(Cl)c(Cl)c4)CC3)n2)cc1Cl [Compound 98] | 8 ± 0.4 | 7 ± 0.1 | 7 ± 0.4 | 18 ± 1 |  |  | 
Cc1cc(S(=O)(=O)N=C2NCCN2Cc2ccc(F)cc2)c(SCc2nc(N)nc(N3CCN(c4ccc(F)c(Cl)c4)CC3)n2)cc1Cl [Compound 99] | 18 ± 0.5 | 17 ± 1 | 17 ± 1 | 30 ± 1 |  |  | 
COc1ccc(N2CCN(c3nc(N)nc(CSc4cc(Cl)c(C)cc4S(=O)(=O)N=C4NCCN4Cc4ccc(F)cc4)n3)CC2)cc1 [Compound 100] | 8 ± 0.5 | 8 ± 0.2 | 7 ± 0.1 | 18 ± 1 |  |  | 
Cc1cc(S(=O)(=O)N=C2NCCN2Cc2ccc(F)cc2)c(SCc2nc(N)nc(N3CCN(Cc4ccccc4)CC3)n2)cc1Cl [Compound 101] | 10 ± 0.6 | 12 ± 0.5 | 11 ± 0.2 | 21 ± 1 |  |  | 
Cc1cc(S(=O)(=O)N=C2NCCN2Cc2ccc(Br)cc2)c(SCc2nc(N)nc(N3CCc4ccccc43)n2)cc1Cl [Compound 102] | 17 ± 1 | 8 ± 0.4 | 7.5 ± 0.4 | 33 ± 1 |  |  | 
Cc1cc(S(=O)(=O)N=C2NCCN2Cc2ccc(Br)cc2)c(SCc2nc(N)nc(N3CCCc4ccccc43)n2)cc1Cl [Compound 103] | 16 ± 0.5 | 7 ± 0.1 | 6.5 ± 0.3 | 28 ± 1 |  |  | 
Cc1cc(S(=O)(=O)N=C2NCCN2Cc2ccc(Br)cc2)c(SCc2nc(N)nc(Nc3ccccc3)n2)cc1Cl [Compound 104] | 25 ± 1 | 17 ± 1 | 13 ± 0.4 | 44 ± 2 |  |  | 
Cc1cc(S(=O)(=O)N=C2NCCN2Cc2ccc(Br)cc2)c(SCc2nc(N)nc(N(C)c3ccc(Cl)cc3)n2)cc1Cl [Compound 105] | 17 ± 0.5 | 13 ± 0.8 | 10 ± 0.2 | 35 ± 2 |  |  | 
Cc1cc(S(=O)(=O)N=C2NCCN2Cc2ccc(Br)cc2)c(SCc2nc(N)nc(N3CCN(c4ccccc4)CC3)n2)cc1Cl [Compound 106] | 82 ± 4 | 8.5 ± 0.1 | 6.5 ± 0.4 | 110 ± 4 |  |  | 
Cc1cc(S(=O)(=O)N=C2NCCN2Cc2ccc(Br)cc2)c(SCc2nc(N)nc(N3CCN(c4ccc(F)cc4)CC3)n2)cc1Cl [Compound 107] | 58 ± 2 | 8.5 ± 0.3 | 7 ± 0.2 | 76 ± 4 |  |  | 
Cc1cc(S(=O)(=O)N=C2NCCN2Cc2ccc(Br)cc2)c(SCc2nc(N)nc(N3CCN(c4cccc(C(F)(F)F)c4)CC3)n2)cc1Cl [Compound 108] | 11 ± 0.5 | 10.5 ± 0.5 | 11 ± 0.5 | 24 ± 1 |  |  | 
Cc1cc(S(=O)(=O)N=C2NCCN2Cc2ccc(Br)cc2)c(SCc2nc(N)nc(N3CCN(c4ccc(Cl)cc4)CC3)n2)cc1Cl [Compound 109] | 36 ± 2 | 23 ± 1 | 22 ± 0.5 | 55 ± 2 |  |  | 
Cc1cc(S(=O)(=O)N=C2NCCN2Cc2ccc(Br)cc2)c(SCc2nc(N)nc(N3CCN(c4ccc(Cl)c(Cl)c4)CC3)n2)cc1Cl [Compound 110] | 85 ± 5 | 20 ± 0.6 | 23 ± 1 | 123 ± 6 |  |  | 
Cc1cc(S(=O)(=O)N=C2NCCN2Cc2cccc(C(F)(F)F)c2)c(SCc2nc(N)nc(N3CCCc4ccccc43)n2)cc1Cl [Compound 112] | 15.5 ± 1 | 15 ± 0.3 | 17 ± 1 | 29 ± 1 |  |  | 
Cc1cc(S(=O)(=O)N=C2NCCN2Cc2cccc(C(F)(F)F)c2)c(SCc2nc(N)nc(N3CCN(c4ccc(C(F)(F)F)cc4)CC3)n2)cc1Cl [Compound 114] | 12 ± 0.3 | 5 ± 0.2 | 6.5 ± 0.3 | 27 ± 1 | 2.2 | 5.4 | 4.1
Cc1cc(S(=O)(=O)N=C2NCCN2Cc2cccc(C(F)(F)F)c2)c(SCc2nc(N)nc(N3CCN(c4ccc(Cl)c(Cl)c4)CC3)n2)cc1Cl [Compound 115] | 12 ± 1 | 5.5 ± 0.2 | 6.5 ± 0.2 | 23 ± 0.5 |  |  | 
COc1ccc(N2CCN(c3nc(N)nc(CSc4cc(Cl)c(C)cc4S(=O)(=O)N=C4NCCN4Cc4cccc(C(F)(F)F)c4)n3)CC2)cc1 [Compound 116] | 17 ± 1 | 6 ± 0.2 | 8.5 ± 0.3 | 31 ± 2 |  |  | 
Cc1cc(S(=O)(=O)N=C2NCCN2Cc2cccc(C(F)(F)F)c2)c(SCc2nc(N)nc(N3CCN(Cc4ccccc4)CC3)n2)cc1Cl [Compound 117] | 12 ± 0.2 | 16 ± 0.5 | 17 ± 1 | 36 ± 2 |  |  | 
Cc1cc(S(=O)(=O)N=C2NCCN2Cc2ccc(C(F)(F)F)cc2)c(SCc2nc(N)nc(N3CCOCC3)n2)cc1Cl [Compound 119] | 18 ± 1 | 13 ± 0.4 | 13.5 ± 1 | 41 ± 2 |  |  | 
Cc1cc(S(=O)(=O)N=C2NCCN2Cc2ccc(C(F)(F)F)cc2)c(SCc2nc(N)nc(N3CCc4ccccc43)n2)cc1Cl [Compound 120] | 12 ± 0.5 | 9 ± 0.5 | 11 ± 0.1 | 24 ± 1 |  |  | 
Cc1cc(S(=O)(=O)N=C2NCCN2Cc2ccc(C(F)(F)F)cc2)c(SCc2nc(N)nc(N3CCCc4ccccc43)n2)cc1Cl [Compound 121] | 13 ± 1 | 6 ± 0.1 | 14 ± 1 | 24 ± 1 |  |  | 

Continued, in another order:

IC50 (HeLa (cervical cancer)) [µM] | IC50 (HCT-116 (colon cancer)) [µM] | IC50 (MCF-7 (breast cancer)) [µM] | Structure (SMILES) | IC50 [1] [µM] | Selectivity Index (SI) HeLa (HeLa (cervical cancer); IC50 value toward HaCaT cells/IC50 value toward HeLa) | Selectivity Index (SI) HCT-116 (HCT-116 (colon cancer); IC50 value toward HaCaT cells/IC50 value toward HCT-116) | Selectivity Index (SI) MCF-7 (MCF-7 (breast cancer); IC50 value toward HaCaT cells/IC50 value toward MCF-7)
19 ± 0.5 | 14 ± 0.4 | 20 ± 1 | Cc1cc(S(=O)(=O)N=C2NCCN2Cc2ccc(C(F)(F)F)cc2)c(SCc2nc(N)nc(Nc3ccccc3)n2)cc1Cl [Compound 122] | 35 ± 1 |  |  | 
18 ± 1 | 12 ± 0.5 | 21 ± 0.6 | Cc1cc(S(=O)(=O)N=C2NCCN2Cc2ccc(C(F)(F)F)cc2)c(SCc2nc(N)nc(Nc3ccc(F)cc3)n2)cc1Cl [Compound 123] | 30 ± 1 |  |  | 
15 ± 0.2 | 9.5 ± 0.1 | 10 ± 0.5 | Cc1cc(S(=O)(=O)N=C2NCCN2Cc2ccc(C(F)(F)F)cc2)c(SCc2nc(N)nc(Nc3cccc(Cl)c3)n2)cc1Cl [Compound 124] | 31 ± 1 |  |  | 
13 ± 0.5 | 7.5 ± 0.2 | 7.5 ± 0.2 | Cc1cc(S(=O)(=O)N=C2NCCN2Cc2ccc(C(F)(F)F)cc2)c(SCc2nc(N)nc(Nc3ccc(C(F)(F)F)cc3)n2)cc1Cl [Compound 125] | 25 ± 1 |  |  | 
20 ± 1 | 11 ± 0.6 | 21 ± 1 | COc1ccc(Nc2nc(N)nc(CSc3cc(Cl)c(C)cc3S(=O)(=O)N=C3NCCN3Cc3ccc(C(F)(F)F)cc3)n2)cc1 [Compound 126] | 37 ± 1 |  |  | 
18 ± 1 | 17 ± 0.5 | 17.5 ± 1 | Cc1cc(S(=O)(=O)N=C2NCCN2Cc2ccc(C(F)(F)F)cc2)c(SCc2nc(N)nc(NCc3ccccc3)n2)cc1Cl [Compound 127] | 39 ± 2 |  |  | 
15 ± 0.4 | 10 ± 0.3 | 14 ± 0.5 | Cc1cc(S(=O)(=O)N=C2NCCN2Cc2ccc(C(F)(F)F)cc2)c(SCc2nc(N)nc(N(C)c3ccccc3)n2)cc1Cl [Compound 128] | 33 ± 1 |  |  | 
15 ± 1 | 11 ± 0.1 | 14 ± 0.5 | Cc1cc(S(=O)(=O)N=C2NCCN2Cc2ccc(C(F)(F)F)cc2)c(SCc2nc(N)nc(N(C)c3ccc(Cl)cc3)n2)cc1Cl [Compound 129] | 31 ± 1 |  |  | 
17 ± 0.5 | 10.5 ± 0.4 | 8 ± 0.3 | Cc1cc(S(=O)(=O)N=C2NCCN2Cc2ccc(C(F)(F)F)cc2)c(SCc2nc(N)nc(N3CCN(C)CC3)n2)cc1Cl [Compound 130] | 36 ± 1 |  |  | 
13 ± 0.5 | 7 ± 0.2 | 15 ± 0.5 | Cc1cc(S(=O)(=O)N=C2NCCN2Cc2ccc(C(F)(F)F)cc2)c(SCc2nc(N)nc(N3CCN(c4ccccc4)CC3)n2)cc1Cl [Compound 131] | 25 ± 1 |  |  | 
16 ± 1 | 8 ± 0.2 | 17 ± 0.4 | Cc1cc(S(=O)(=O)N=C2NCCN2Cc2ccc(C(F)(F)F)cc2)c(SCc2nc(N)nc(N3CCN(c4ccc(F)cc4)CC3)n2)cc1Cl [Compound 132] | 26 ± 1 |  |  | 
